Assay results taken from US11473055B2, “Virus-free cell lines and methods for obtaining same” (Glycobac, LLC, priority 2015, dated 2022).

Columns and labels:
Sf-rhabdovirus [1] = assay: Sf-rhabdovirus RT-PCR/nested PCR of single Sf9 cell subclones isolated by limiting dilution and treated with antiviral drugs; assay type: cell-based, Spodoptera frugiperda; details: single Sf9 cell subclone, 10 μg/ml, about a month (FIG. 2B)
Method: Example 3. Exemplary method for obtaining an established Sf cell line characterized by a lack of virus. […] This exemplary embodiment comprised isolating single Sf9 cells by limiting dilution, then treating the isolated cell subclones with antiviral drugs. […] The cells were cultured for about a month with ad hoc amplification to produce progressively larger cultures and, after achieving the 25 cm^2 flask level, samples were tested for Sf-rhabdovirus contamination by PCR, as described in Example 4. A clone lacking Sf-rhabdovirus contamination (FIG. 2B) was transferred to media lacking antiviral drugs, designated Sf-RVN passage zero (PO) and, at P2, transferred to a shake-flask culture in serum-free ESF 921 medium and subsequently maintained in this culture medium and format.
Example 4. Sf-rhabdovirus-specific Reverse Transcription-PCR (RT-PCR)/nested PCR. […] One μL of each primary PCR (RT-PCR) was then used as the template for secondary PCR's (RT-PCR/nested PCR) under the same conditions, except the primers were nested Sf-rhabdovirus-specific primers Mono-1i (SEQ ID NO: 7) and Mono-2i (SEQ ID NO: 8).

Tn-nodavirus = Tn-nodavirus RT-PCR/nested PCR of single TN-368 cell subclones treated with ribavirin; assay type: cell-based, Trichoplusia ni; details: single TN-368 cell subclone, 200 μg/mL, about a month (FIG. 14)
Method: Example 15. Exemplary method for obtaining an established T. ni cell line that lacks virus. After discovering polyclonal TN-368 cell cultures treated with antiviral drug cocktails remained Tn-nodavirus-positive, we employed a disclosed method for obtaining a virus-free cell line. […] The first culture composition was cultured for about a month with ad hoc amplification to produce progressively larger cultures and, after achieving the 25 cm^2 flask level, samples were tested for Tn-nodavirus by RT-PCR, followed by nested PCR, as described in Example 16. […] The clone, designated Tn-NVN passage zero (PO), was adapted to serum-free ESF 921 medium and grown in suspension. The Tn-NVN cell line was subsequently maintained in this second culture composition and growth format.

Sf-rhabdovirus [2] = test system: Sf-rhabdovirus

SMILES | Sf-rhabdovirus RNA by RT-PCR followed by nested PCR (Sf-rhabdovirus [1]) | Tn-nodavirus RNA by RT-PCR followed by nested PCR (Tn-nodavirus) | Sf-rhabdovirus RNA by RT-PCR (Sf-rhabdovirus [2]; polyclonal Sf9 cells, 100 μg/ml, about a month, still in presence of drug (FIG. 1A)) | Sf-rhabdovirus RNA by RT-PCR/nested PCR after transfer to drug-free medium (Sf-rhabdovirus [2]; ribavirin-treated Sf9 cells transferred to culture medium lacking antiviral drugs (FIG. 1B))
O=c1cnn([C@@H]2O[C@H](CO)[C@@H](O)[C@H]2O)c(=O)[nH]1 [6-azauridine] | negative for Sf-rhabdovirus contamination |  |  | 
NC(=O)c1ncn([C@@H]2O[C@H](CO)[C@@H](O)[C@H]2O)n1 [ribavirin] |  | lacking Tn-nodavirus | no RT-PCR-detectable Sf-rhabdovirus | reverted to the Sf-rhabdovirus-positive phenotype
